Data on 10 compounds can be found in PubChem BioAssay (NCI).

Values joined by “and” are separate entries in the source; they are usually repeats but may differ in a detail not shown here. Equal entries are not always repeated.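 Cultured in 96-well plates, cells were exposed to test compound for 48 hours across five concentrations. Abbreviation: GI50, concentration required for 50% inhibition of growth. Definition used: TGI = concentration required for complete inhibition of growth.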

Test systems include SF-268 CNS; ACHN renal; RPMI-8226 leukemia; HCC-2998 colon; IGROV1 ovarian; 786-0 renal; SK-OV-3 ovarian; SR leukemia; DU-145 prostate; HS 578T breast.
What all share (assay): DTP human tumour cell line panel, 48 h

By TGI is commonly meant the concentration giving total growth inhibition. A low value points to greater sensitivity of the cells. Take `Cc1cc(NC(=O)C2C3C=CC(O3)C2C(=O)O)no1` (stereo unspecified): the TGI in the test with SF-268 CNS was 51.9 µM; in the test with ACHN renal, over 100 µM; in the test on RPMI-8226 leukemia it was 37.4 µM; with HCC-2998 colon, over 100 µM; in the test on IGROV1 ovarian, over 100 µM; in the test on 786-0 renal, 34.9 µM. The TGI with SK-OV-3 ovarian was over 100 µM; in the test on SR leukemia it was 42.8 µM.
What is called GI50 is the concentration giving 50% growth inhibition. Take `O=C1C2=C(C(=O)c3cnccc31)C1C=CC2CC1` (stereo unspecified): the GI50 in the test with SF-268 CNS is 1900 nM; in the test with DU-145 prostate, 1800 nM; with RPMI-8226 leukemia it was 2280 nM; with HCC-2998 colon it was 8.74 µM; with IGROV1 ovarian it was 2200 nM; in the test with 786-0 renal, 1.95 µM. In addition, the GI50 in the test on HS 578T breast was 2.77 µM; in the test with SK-OV-3 ovarian it was 5.58 µM; with SR leukemia it was 3.22 µM. Besides, the TGI was found to be 3.84 µM in the test on SF-268 CNS; 3.24 µM in the test on DU-145 prostate; 5.59 µM in the test on RPMI-8226 leukemia; 21.2 µM with HCC-2998 colon; 4.31 µM in the test with IGROV1 ovarian; 3.37 µM in the test with 786-0 renal. Besides, the TGI in the test on HS 578T breast was 6.6 µM; with SK-OV-3 ovarian, 10.4 µM; with SR leukemia, over 21.2 µM.
For the compound `Cc1nc2ccc(Br)cc2c(=O)n1-c1ccc(NC2OCC(O)C(O)C2O)cc1` (stereo unspecified), the TGI with SF-268 CNS is over 100 µM; in the test on DU-145 prostate, over 100 µM; in the test on ACHN renal, over 100 µM; with HCC-2998 colon, 40.4 µM and > 100 µM; in the test with IGROV1 ovarian, over 100 µM; with 786-0 renal it was 42.2 µM and > 100 µM. The TGI in the test on HS 578T breast is over 100 µM; in the test on SK-OV-3 ovarian it was over 100 µM; in the test with SR leukemia, 59.7 µM and > 100 µM. Besides, the GI50 in the test on ACHN renal was 35.6 µM and > 100 µM; in the test on HCC-2998 colon it was 19.1 µM and > 100 µM; in the test on 786-0 renal, 19.1 µM and > 100 µM; in the test on SK-OV-3 ovarian, over 100 µM; with SR leukemia, 25 µM and 61 µM.
Take `CCOC(=O)c1c(C)n(Cc2ccc(Cl)cc2Cl)c2c1cc1oc(=O)c(=O)n3cnc2c13`: the GI50 in the test on SF-268 CNS is 16300 nM; with DU-145 prostate it was 17300 nM; with ACHN renal, 14.4 µM; with RPMI-8226 leukemia it was 6320 nM; with IGROV1 ovarian, 17800 nM; in the test with 786-0 renal it was 18.3 µM. For the same compound, the GI50 with HS 578T breast is 24.1 µM; in the test with SK-OV-3 ovarian it was 23.5 µM; in the test on SR leukemia, 1.09 µM. Besides, the TGI in the test on SF-268 CNS was found to be 33.3 µM; in the test with DU-145 prostate, 32.9 µM; in the test on ACHN renal, 27.5 µM; in the test on RPMI-8226 leukemia, 21.8 µM; with IGROV1 ovarian, 34 µM; in the test on 786-0 renal, 34.9 µM. The total growth inhibition concentration (TGI) stood at 64.2 µM in the test with HS 578T breast, 38.3 µM in the test on SK-OV-3 ovarian and 5.85 µM in the test with SR leukemia.
On to `Cc1cccc2c1c1ccc3c(c1n2C)C(=O)C=CC3=O`, for which the TGI with SF-268 CNS was 36.5 µM; in the test with ACHN renal, 18 µM; in the test on RPMI-8226 leukemia, 13.2 µM; in the test on HCC-2998 colon it was 32.8 µM; in the test on IGROV1 ovarian, 32.5 µM; in the test on 786-0 renal, 3.64 µM. The values for the TGI with SK-OV-3 ovarian and in the test on SR leukemia were 37.3 µM and 4.45 µM, respectively.
On to `O=C(Nc1ccc(F)cc1F)c1cc(Cl)ccc1O`, for which the GI50 with SF-268 CNS was 1300 nM; with DU-145 prostate it was 3000 nM; in the test with ACHN renal, 2.09 µM; with RPMI-8226 leukemia, 689 nM; in the test with HCC-2998 colon, 2.97 µM; in the test with IGROV1 ovarian it was 1490 nM. Besides, the GI50 in the test with 786-0 renal is 2.71 µM; in the test with HS 578T breast, 0.978 µM; in the test with SK-OV-3 ovarian, 0.722 µM. Moreover, the TGI is 11.6 µM in the test on SF-268 CNS; 69.6 µM with DU-145 prostate; 7.68 µM in the test with ACHN renal; 3.83 µM with RPMI-8226 leukemia; 9.51 µM with HCC-2998 colon; over 100 µM with IGROV1 ovarian. The TGI in the test with 786-0 renal came out at 7.69 µM; in the test with HS 578T breast, 7.25 µM; in the test with SK-OV-3 ovarian, 4.85 µM.
On to `O=[N+]([O-])c1cccc(-c2nc(-c3ccccc3)c(-c3ccccc3)[nH]2)c1`, for which the TGI in the test on SF-268 CNS, in the test on DU-145 prostate, in the test on RPMI-8226 leukemia, in the test with HCC-2998 colon, in the test on IGROV1 ovarian and in the test with 786-0 renal was over 100 µM each time. Moreover, the TGI in the test on HS 578T breast, in the test with SK-OV-3 ovarian and in the test on SR leukemia was over 100 µM each time.
`Cn1cccc1-c1cc(-c2ccccc2)[nH]c(=O)c1C#N`: the GI50 was over 100000 nM in the test on SF-268 CNS; over 100000 nM with DU-145 prostate; over 100 µM in the test on ACHN renal; over 100000 nM in the test with RPMI-8226 leukemia; over 100 µM with HCC-2998 colon; over 100000 nM in the test on IGROV1 ovarian. Further, the GI50 in the test with 786-0 renal, in the test on HS 578T breast and in the test with SK-OV-3 ovarian was over 100 µM each time. For the same compound, the TGI in the test on SF-268 CNS, with DU-145 prostate, with ACHN renal, with RPMI-8226 leukemia, with HCC-2998 colon and with IGROV1 ovarian was over 100 µM each time. In addition, the TGI in the test with 786-0 renal, with HS 578T breast and in the test on SK-OV-3 ovarian was over 100 µM each time.
Take `CC1CN(S(=O)(=O)c2oc(-c3ccc(Cl)cc3)nc2C#N)CC(C)O1` (stereo unspecified): the GI50 in the test on SF-268 CNS is 1930 nM; with DU-145 prostate it was 1920 nM; in the test on ACHN renal, 1.74 µM; in the test on HCC-2998 colon it was 2.27 µM; in the test with IGROV1 ovarian it was 1870 nM; with 786-0 renal, 1.62 µM. The results for the GI50 in the test with HS 578T breast and in the test with SK-OV-3 ovarian were 3.92 µM and 25.1 µM, respectively. The TGI in the test on SF-268 CNS worked out at 4.14 µM; with DU-145 prostate, 4.1 µM; with ACHN renal, 3.13 µM; with HCC-2998 colon, 5.43 µM; with IGROV1 ovarian, 3.69 µM; with 786-0 renal it was 3.3 µM. Besides, the TGI was found to be 27.2 µM with HS 578T breast and 70.6 µM in the test with SK-OV-3 ovarian.
Regarding `Cc1cc(Cl)ccc1OCC(=O)Nc1nc(N)nc(N)n1`, the TGI with SF-268 CNS, with DU-145 prostate, in the test with ACHN renal, in the test on RPMI-8226 leukemia, in the test on IGROV1 ovarian and in the test with 786-0 renal was over 100 µM in each case. Besides, the TGI in the test on HS 578T breast, with SK-OV-3 ovarian and with SR leukemia was over 100 µM each time.
